Results taken from paper PMC7566600, “Engineering Af1521 improves ADP-ribose binding and identification of ADP-ribosylated proteins” (Nature Communications, 2020).

Biological target: T1, WT Af1521 macro domain (Archaeoglobus fulgidus, UniProt O28751)
T1 construct: gene AF_1521; macro domain, His-tagged
T1 sequence (O28751 1-192): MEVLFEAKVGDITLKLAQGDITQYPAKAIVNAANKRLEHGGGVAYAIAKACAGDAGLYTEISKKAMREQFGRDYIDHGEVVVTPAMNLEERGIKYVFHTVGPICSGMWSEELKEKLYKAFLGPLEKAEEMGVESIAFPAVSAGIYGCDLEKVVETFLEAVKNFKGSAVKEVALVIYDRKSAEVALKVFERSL
Experiment: SPR ([…] kinetic fit; steady-state fit gave […]), immobilized protein
Type: binding

Nc1ncnc2c1ncn2[C@@H]1O[C@H](COP(=O)(O)OP(=O)(O)OC[C@H]2O[C@H](O)[C@H](O)[C@@H]2O)[C@@H](O)[C@H]1O [ADP-ribose]
Kd: 2.879 ± 0.009 µM
